Assay results reported in ChEMBL document CHEMBL4049381 (Medchemcomm, 2016).

Tests used:
[1] = Substrate activity at human OATP2B1 H618Q/H579Q double mutant low affinity site expressed in Xenopus laevis oocytes assessed as Vmax for transporter-mediated drug accumulation per 15 mins per oocyte by Eadie-Hofstee plot method; format: ADME, cell-based; settings: 0.25 h
[2] = target: T1, Solute carrier organic anion transporter family member 2B1 (Homo sapiens, UniProt O94956); assay: Ratio of Vmax to Km for human OATP2B1 low affinity site expressed in Xenopus laevis oocytes assessed as transporter-mediated drug uptake per 15 mins per oocyte after 15 mins by Eadie-Hofstee plot method; format: ADME, cell-based; settings: 0.25 h
T1 sequence (O94956 whole entry): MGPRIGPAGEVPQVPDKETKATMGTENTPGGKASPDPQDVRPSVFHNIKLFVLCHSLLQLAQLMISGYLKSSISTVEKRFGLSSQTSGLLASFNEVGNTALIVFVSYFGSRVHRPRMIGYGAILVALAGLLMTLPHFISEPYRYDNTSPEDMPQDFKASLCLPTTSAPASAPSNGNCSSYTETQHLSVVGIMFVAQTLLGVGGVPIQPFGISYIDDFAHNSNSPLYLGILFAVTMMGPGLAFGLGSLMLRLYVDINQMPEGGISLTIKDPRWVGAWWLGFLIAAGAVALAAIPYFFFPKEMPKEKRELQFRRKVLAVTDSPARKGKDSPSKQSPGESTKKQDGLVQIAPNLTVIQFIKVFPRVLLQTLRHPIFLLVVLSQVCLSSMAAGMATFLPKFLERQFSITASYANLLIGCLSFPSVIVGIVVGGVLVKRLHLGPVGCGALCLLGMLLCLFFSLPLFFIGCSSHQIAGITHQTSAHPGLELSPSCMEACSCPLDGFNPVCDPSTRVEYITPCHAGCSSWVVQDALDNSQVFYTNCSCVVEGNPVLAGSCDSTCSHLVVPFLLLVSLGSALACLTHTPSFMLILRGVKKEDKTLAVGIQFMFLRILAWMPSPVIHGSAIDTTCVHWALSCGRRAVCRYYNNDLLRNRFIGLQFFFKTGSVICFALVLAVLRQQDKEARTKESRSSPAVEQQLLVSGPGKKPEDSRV

[3] = target: T2, Solute carrier organic anion transporter family member 2B1 (Homo sapiens, UniProt O94956, H579Q); assay: Drug uptake assessed as human OATP2B1 H579Q mutant expressed in Xenopus laevis oocyte mediated drug accumulation at 50 uM after 15 mins by LC-MS/MS analysis relative to wild type protein; format: ADME; settings: 0.25 h
T2 sequence (O94956 whole entry T392I/H579Q): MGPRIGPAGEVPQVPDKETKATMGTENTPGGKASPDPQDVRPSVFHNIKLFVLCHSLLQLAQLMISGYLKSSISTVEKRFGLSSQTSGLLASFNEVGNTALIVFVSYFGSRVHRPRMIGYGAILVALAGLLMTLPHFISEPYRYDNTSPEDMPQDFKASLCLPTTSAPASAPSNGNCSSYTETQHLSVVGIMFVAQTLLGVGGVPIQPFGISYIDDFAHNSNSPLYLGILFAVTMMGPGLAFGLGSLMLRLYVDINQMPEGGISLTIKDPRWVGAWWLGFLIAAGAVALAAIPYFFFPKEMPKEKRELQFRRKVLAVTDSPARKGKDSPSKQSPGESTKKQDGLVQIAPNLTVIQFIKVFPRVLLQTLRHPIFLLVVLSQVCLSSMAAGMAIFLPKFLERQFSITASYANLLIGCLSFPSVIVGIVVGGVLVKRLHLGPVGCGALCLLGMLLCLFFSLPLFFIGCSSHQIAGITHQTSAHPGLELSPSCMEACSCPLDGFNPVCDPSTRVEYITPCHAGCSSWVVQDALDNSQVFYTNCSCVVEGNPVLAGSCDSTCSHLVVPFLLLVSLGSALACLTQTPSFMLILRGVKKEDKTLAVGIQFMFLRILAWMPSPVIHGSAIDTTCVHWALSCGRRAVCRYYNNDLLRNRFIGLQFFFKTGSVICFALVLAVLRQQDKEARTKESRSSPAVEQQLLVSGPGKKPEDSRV

[4] = target: T1, Solute carrier organic anion transporter family member 2B1; assay: Drug uptake assessed as OATP2B1 high affinity site (unknown origin)-mediated drug uptake in presence of 1 mM pravastatin relative to control; format: ADME
[5] = target: T1, Solute carrier organic anion transporter family member 2B1; assay: Ratio of Vmax to Km for human OATP2B1 high affinity site expressed in Xenopus laevis oocytes assessed as transporter-mediated drug uptake per 15 mins per oocyte after 15 mins by Eadie-Hofstee plot method; format: ADME, cell-based; settings: 0.25 h
[6] = target: T1, Solute carrier organic anion transporter family member 2B1; assay: Drug uptake assessed as human OATP2B1 expressed in Xenopus laevis oocyte mediated drug accumulation per oocyte at 50 uM after 15 mins by LC-MS/MS analysis; format: ADME; settings: 0.25 h
[7] = target: T3, Solute carrier organic anion transporter family member 2B1 (Homo sapiens, UniProt O94956, H618Q); assay: Ratio of Vmax to Km for human OATP2B1 H618Q mutant low affinity site expressed in Xenopus laevis oocytes assessed as transporter-mediated drug uptake per 15 mins per oocyte after 15 mins by Eadie-Hofstee plot method; format: ADME, cell-based; settings: 0.25 h
T3 sequence (O94956 whole entry T392I/H618Q): as the sequence (O94956 whole entry T392I/H579Q) above, with Q579H, H618Q counted along it

[8] = target: T3, Solute carrier organic anion transporter family member 2B1; assay: Drug uptake assessed as human OATP2B1 H618Q mutant expressed in Xenopus laevis oocyte mediated drug accumulation at 0.005 to 50 uM after 15 mins by LC-MS/MS analysis relative to wild type protein; format: ADME; settings: 0.25 h
[9] = target: T1, Solute carrier organic anion transporter family member 2B1; assay: Drug uptake assessed as human OATP2B1 expressed in Xenopus laevis oocyte mediated drug accumulation per oocyte at 0.005 uM after 15 mins by LC-MS/MS analysis; format: ADME; settings: 0.25 h
[10] = target: T3, Solute carrier organic anion transporter family member 2B1; assay: Substrate activity at human OATP2B1 H618Q mutant low affinity site expressed in Xenopus laevis oocytes assessed as Vmax for transporter-mediated drug accumulation per 15 mins per oocyte by Eadie-Hofstee plot method; format: ADME, cell-based; settings: 0.25 h
[11] = Ratio of Vmax to Km for human OATP2B1 H579Q/H618Q double mutant high affinity site expressed in Xenopus laevis oocytes assessed as transporter-mediated drug uptake per 15 mins per oocyte after 15 mins by Eadie-Hofstee plot method; format: ADME, cell-based; settings: 0.25 h
[12] = system: OATP2B1 H579Q/H618Q double mutant, high affinity site; assay: Substrate activity at human OATP2B1 H579Q/H618Q double mutant high affinity site expressed in Xenopus laevis oocytes assessed as Km for transporter-mediated drug accumulation after 15 mins by Eadie-Hofstee plot method; format: ADME, cell-based
[13] = target: T1, Solute carrier organic anion transporter family member 2B1; assay: Substrate activity at human OATP2B1 high affinity site expressed in Xenopus laevis oocytes assessed as Vmax for transporter-mediated drug accumulation per 15 mins per oocyte by Eadie-Hofstee plot method; format: ADME, cell-based; settings: 0.25 h
[14] = target: T1, Solute carrier organic anion transporter family member 2B1; assay: Drug uptake assessed as OATP2B1 high affinity site (unknown origin)-mediated drug uptake in presence of 1 mM sulfasalazine relative to control; format: ADME
[15] = system: OATP2B1 H618Q/H579Q double mutant, low affinity site; assay: Substrate activity at human OATP2B1 H618Q/H579Q double mutant low affinity site expressed in Xenopus laevis oocytes assessed as Km for transporter-mediated drug accumulation after 15 mins by Eadie-Hofstee plot method; format: ADME, cell-based
[16] = Substrate activity at human OATP2B1 H579Q/H618Q double mutant high affinity site expressed in Xenopus laevis oocytes assessed as Vmax for transporter-mediated drug accumulation per 15 mins per oocyte by Eadie-Hofstee plot method; format: ADME, cell-based; settings: 0.25 h
[17] = target: T1, Solute carrier organic anion transporter family member 2B1; assay: Drug uptake assessed as OATP2B1 low affinity site (unknown origin)-mediated drug uptake in presence of 1 mM pravastatin relative to control; format: ADME
[18] = target: T2, Solute carrier organic anion transporter family member 2B1; assay: Drug uptake assessed as human OATP2B1 H579Q mutant expressed in Xenopus laevis oocyte mediated drug accumulation at 0.005 to 50 uM after 15 mins by LC-MS/MS analysis relative to wild type protein; format: ADME; settings: 0.25 h
[19] = target: T1, Solute carrier organic anion transporter family member 2B1; assay: Substrate activity at human OATP2B1 low affinity site expressed in Xenopus laevis oocytes assessed as Vmax for transporter-mediated drug accumulation per 15 mins per oocyte by Eadie-Hofstee plot method; format: ADME, cell-based; settings: 0.25 h
[20] = target: T1, Solute carrier organic anion transporter family member 2B1; assay: Drug uptake assessed as OATP2B1 low affinity site (unknown origin)-mediated drug uptake in presence of 1 mM sulfasalazine relative to control; format: ADME
[21] = target: T3, Solute carrier organic anion transporter family member 2B1; assay: Ratio of Vmax to Km for human OATP2B1 H618Q mutant high affinity site expressed in Xenopus laevis oocytes assessed as transporter-mediated drug uptake per 15 mins per oocyte after 15 mins by Eadie-Hofstee plot method; format: ADME, cell-based; settings: 0.25 h
[22] = target: Solute carrier organic anion transporter family member 2B1 (Homo sapiens, UniProt O94956, R607A); assay: Drug uptake assessed as human OATP2B1 R607A mutant expressed in Xenopus laevis oocyte mediated drug accumulation at 0.005 to 50 uM after 15 mins by LC-MS/MS analysis relative to wild type protein; format: ADME; settings: 0.25 h
Chain of Solute carrier organic anion transporter family member 2B1 (Homo sapiens, UniProt O94956, R607A) (O94956 whole entry T392I/R607A): as the sequence (O94956 whole entry T392I/H579Q) above, with Q579H, R607A counted along it

[23] = target: T3, Solute carrier organic anion transporter family member 2B1; assay: Drug uptake assessed as human OATP2B1 H618Q mutant expressed in Xenopus laevis oocyte mediated drug accumulation at 0.005 uM after 15 mins by LC-MS/MS analysis relative to wild type protein; format: ADME; settings: 0.25 h
[24] = target: T3, Solute carrier organic anion transporter family member 2B1; assay: Substrate activity at human OATP2B1 H618Q mutant high affinity site expressed in Xenopus laevis oocytes assessed as Vmax for transporter-mediated drug accumulation per 15 mins per oocyte by Eadie-Hofstee plot method; format: ADME, cell-based; settings: 0.25 h
[25] = Ratio of Vmax to Km for human OATP2B1 H618Q/H579Q double mutant low affinity site expressed in Xenopus laevis oocytes assessed as transporter-mediated drug uptake per 15 mins per oocyte after 15 mins by Eadie-Hofstee plot method; format: ADME, cell-based; settings: 0.25 h
[26] = target: Solute carrier organic anion transporter family member 2B1 (Homo sapiens, UniProt O94956, H219Q); assay: Drug uptake assessed as human OATP2B1 H219Q mutant expressed in Xenopus laevis oocyte mediated drug accumulation at 0.005 to 50 uM after 15 mins by LC-MS/MS analysis relative to wild type protein; format: ADME; settings: 0.25 h
Chain of Solute carrier organic anion transporter family member 2B1 (Homo sapiens, UniProt O94956, H219Q) (O94956 whole entry H219Q/T392I): as the sequence (O94956 whole entry T392I/H579Q) above, with H219Q, Q579H counted along it

## C[C@]12CC[C@@H]3c4ccc(OS(=O)(=O)O)cc4CC[C@H]3[C@@H]1CCC2=O [ESTRONE SULFURIC ACID]
[1]
  Vmax: 30.9 pmol
[2]
  Vmax/Km: 0.385 µL
[3]
  Drug uptake: 14%
[4]
  Drug uptake: 21%
[5]
  Vmax/Km: 1.87 µL
[6]
  Drug uptake: 0.198 µL
[7]
  Vmax/Km: 0.659 µL
[8]
  fold change (FC): < 2
[9]
  Drug uptake: 2.39 µL
[10]
  Vmax: 60 pmol
[11]
  Vmax/Km: 0.471 µL
[12]
  Km at 0.25 h: 0.808 µM
[13]
  Vmax: 0.867 pmol
[14]
  Drug uptake: < 1%
[15]
  Km at 0.25 h: 312 µM
[16]
  Vmax: 0.38 pmol
[17]
  Drug uptake: 79%
[18]
  fold change (FC): < 2
[19]
  Vmax: 19.8 pmol
[20]
  Drug uptake: < 1%
[21]
  Vmax/Km: 0.269 µL
[22]
  fold change (FC): < 2
[23]
  Drug uptake: 17.8%
[24]
  Vmax: 0.0402 pmol
[25]
  Vmax/Km: 0.0987 µL
[26]
  fold change (FC): < 2
